According to patent publication US8124111B2, “Immunomodulation by altering sphingosine 1-phosphate lyase (SPL) activity” (Children's Hospital & Research Center at Oakland, priority 2005, dated 2012):

Legend:
Lymphocytes = assay: Lymphocyte counts after FTY720 treatment; type: in vivo, mice
Description: (§1) Drug treatments and leukocyte/lymphocyte counts: Four-week old FVB or C3H mice were obtained from Charles River Laboratories (Wilmington, Mass.). Animals were maintained in a pathogen-free facility in microisolator cages. Mice were anaesthetized with isoflurane inhalation, and a single dose of FTY720 (at 1 or 3 mg/kg) or GT11 (at 1, 10 or 100 mg/kg) in sterile water was injected intraperitoneally at time zero. Blood counts were determined by Coulter counter (Coulter Instruments, Hialeah, Fla.) and by manual differential counting. Mice were euthanized by CO2 inhalation at various time points post-injection, followed by tissue harvest. All animal studies were performed in accordance with approved CHORI IACUC protocols.
(§2) Inhibition of SPL by FTY720 in vivo—The effect on SPL enzyme activity of FTY720 administration was tested. Four-week old female FVB mice were given 1 mg/kg FTY720 by intraperitoneal injection, and tissue SPL activity in thymus was assessed over time. […] SPL inhibition occurred concomitantly with lymphopenia, and was consistent with the timing of lymphopenia reported previously (Chiba et al., (1998) J Immunol 160, 5037-5044) (Table 1).

SPL = target: T1, SPL (Mus musculus, UniProt Q8R0X7); assay: SPL activity in thymic tissue after FTY720 administration in vivo; design: species or system FVB mice; conditions: for SPL enzyme inhibition in tissue homogenates: animals treated with FTY720 for 24 hours
T1 construct: from tissue; host or cells: thymus of FVB mice
T1 sequence (Q8R0X7 1-568): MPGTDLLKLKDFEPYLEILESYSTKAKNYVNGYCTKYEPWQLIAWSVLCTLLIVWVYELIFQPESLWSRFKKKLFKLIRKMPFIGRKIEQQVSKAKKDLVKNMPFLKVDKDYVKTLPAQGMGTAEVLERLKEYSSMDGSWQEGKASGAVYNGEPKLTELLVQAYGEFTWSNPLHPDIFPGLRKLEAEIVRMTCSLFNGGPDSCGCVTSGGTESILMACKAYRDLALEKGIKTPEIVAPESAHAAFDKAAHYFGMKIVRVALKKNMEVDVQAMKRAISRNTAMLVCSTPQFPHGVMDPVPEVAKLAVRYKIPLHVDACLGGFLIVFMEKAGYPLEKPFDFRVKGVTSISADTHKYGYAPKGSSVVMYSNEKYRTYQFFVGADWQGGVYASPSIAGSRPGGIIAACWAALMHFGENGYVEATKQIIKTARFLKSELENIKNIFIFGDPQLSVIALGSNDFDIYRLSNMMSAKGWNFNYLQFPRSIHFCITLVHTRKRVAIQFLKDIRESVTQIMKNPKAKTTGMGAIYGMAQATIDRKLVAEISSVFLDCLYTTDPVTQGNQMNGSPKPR
Description: One mg/kg FTY720 was administered by peritoneal injection to FVB mice at time zero. Mice were euthanized at the indicated times, and SPL activity in thymic tissue was determined.
as §1
SPL enzyme assay: Tissues were homogenized by sonication in 9 volumes of ice-cold homogenization buffer (5 mM MOPS pH 7.5, 1 mM DTT, 1 mM EDTA, 0.25 M sucrose, and 5 micrograms/ml each chymostatin, leupeptin, pepstatin A and antipain). SPL assays were conducted using 50 micrograms protein per assay and radioactive [4,5 ^3H]DHS1P substrate, as described previously (Reiss et al., (2004) J Biol Chem 279, 1281-1290). For in vitro FTY720 and FTY720-P experiments, drug was incubated with whole cell extracts prepared from HEK293 cells infected with an adenoviral vector expressing human SPL. These extracts contained approximately 200 picomoles/mg protein/minute SPL activity. Drug was incubated with extracts for 30 minutes, followed by addition of extracts to reaction buffer and substrate to initiate the reaction.
as §2
To address whether the inhibition of SPL activity in homogenates of tissues isolated from FTY720 treated animals was reversible, tissue SPL activity was measured in the presence of increasing amounts of non-radiolabeled DHS1P substrate.

[1] = single dose administration; cited from earlier work
[2] = test system: human SPL luciferase reporter construct; assay: SPL gene expression, human SPL luciferase reporter in HEK293 cells; type: cell-based; conditions: 0.3 μM or 3.0 μM, 24 hours
Description: (§3) (A) SPL gene expression. HEK293 cells were co-transfected with a human SPL luciferase reporter construct and the sea pansy luciferase reporter as a control for transfection efficiency. Twenty-four hours after transfection, cells were treated with 0.3 μM FTY720, 3.0 μM FTY720 or vehicle and incubated for another 24 hours at 37° C. Luciferase activity was then determined as a measure of expression, as described in Experimental Methods. Values shown are luciferase activity normalized to sea pansy luciferase; (B) SPL protein expression. Thymic extracts from control mice (time 0) and mice treated with FTY720 for 24 hours were evaluated for SPL protein expression by immunoblotting. Actin was used as a loading control.
(§4) SPL expression: To evaluate the effect of FTY720 and FTY720-P on SPL gene expression, HEK293 cells were treated for 30 minutes with 3 μM of either drug, followed by transfection with pSPL-BamHI, a human SPL-luciferase reporter construct. After 48 hours, reporter expression was determined by luciferase activity as described (Oskouian et al., (2005) J Biol Chem 280, 18403-18410)). Western blotting of mouse tissue extracts was performed using a 1:2000 dilution of polyclonal sera raised against the murine SPL C-terminal peptide: (NH2)—V-T-Q-G-N-Q-M-N-G-S—P—K—P—R—(COOH). [SEQ ID NO:11] […]

SPL protein expression = SPL protein expression in thymic extracts by immunoblotting; type: in vivo; conditions: mice treated for 24 hours
Description: as §3, §4

[3] = 1 mg/kg FTY720 intraperitoneal, FVB mice, thymus

Q: For `CCCCCCCCc1ccc(CCC(N)(CO)CO)cc1` [FTY720], which Lymphocytes (Lymphocytes; 24 hours after FTY720) is on record?
A: 2.2 1000/μL

Q: And the Lymphocytes (Lymphocytes; 48 hours after FTY720)?
A: 3.2 1000/μL

Q: And the Lymphocytes (Lymphocytes; 72 hours after FTY720)?
A: 2.0 1000/μL

Q: What about the “earliest time at which inhibition of SPL was noted” value (SPL; [3]) of the same molecule?
A: 12 h

Q: And the “time by which SPL inhibition began to reverse” value (SPL; [3])?
A: ≤ 48 h

Q: And the “SPL enzyme inhibition in tissue homogenates” value (“SPL enzyme inhibition” below) (SPL; 10 nmol substrate (standard assay conditions))?
A: 21%

Q: What about the “SPL enzyme inhibition” value (SPL; 40 nmol unlabeled substrate) of the same molecule?
A: 25%

Q: And the “SPL enzyme inhibition” value (SPL; 2-fold increase in unlabeled DHS1P substrate)?
A: 14%

Q: And the inhibition at 1 mg/kg (SPL; mouse, ip, 1 mg/kg FTY720 intraperitoneal, FVB mice, thymus, at 36 hours, read-out: peak inhibition of SPL activity)?
A: ~40%

Q: And the elimination half-life [1]?
A: long

Q: And the “SPL gene expression (luciferase activity normalized to sea pansy luciferase)” value [2]?
A: not affected

Q: And the “SPL protein expression (immunoblotting)” value (SPL protein expression)?
A: not affected
